These results are taken from the Kinase Knowledgebase extract (Sharma et al. 2016).

Bounds are passed on as bounds.

This assay deals with MAPK14 (UniProt Q16539). The experiment in a line: Inhibition of MAPK14 Kinase Activity.
MAPK14, sequence (Q16539 whole entry, looked up): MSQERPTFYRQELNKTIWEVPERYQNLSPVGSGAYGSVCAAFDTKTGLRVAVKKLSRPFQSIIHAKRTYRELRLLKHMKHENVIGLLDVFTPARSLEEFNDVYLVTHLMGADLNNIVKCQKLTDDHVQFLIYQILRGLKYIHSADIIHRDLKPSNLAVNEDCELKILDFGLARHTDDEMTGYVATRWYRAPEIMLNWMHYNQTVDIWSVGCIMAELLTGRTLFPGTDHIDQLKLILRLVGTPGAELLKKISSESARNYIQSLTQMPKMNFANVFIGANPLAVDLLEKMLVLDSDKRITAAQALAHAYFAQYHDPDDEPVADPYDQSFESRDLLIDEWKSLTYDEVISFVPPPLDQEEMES

In turn, `Cc1ccc(NC(=O)c2ccsc2)cc1-c1ccc(C(=O)Nc2ccccc2CN2CCN(C)CC2)cn1` returned an IC50 of less than 10 µM. The value for `Cc1ccc(C(=O)NCC2CC2)cc1-c1ccc(C(=O)NCc2cccc(NS(C)(=O)=O)c2)cn1` was less than 10 µM.

`COc1ccc(NC(=O)c2ccc(-c3cc(C(=O)NCC4CC4)ccc3C)nc2)cc1` had an IC50 of less than 10 µM. The value for `Cc1c(F)cc(C(=O)NC2CC2)cc1-c1ccc(C(=O)N2CCC(C)C2(C)C)cn1` (stereo not drawn) was less than 10 µM. The value for `Cc1c(F)cc(C(=O)NC2CC2)cc1-c1ccc(C(=O)NC2CC2)cn1` was less than 10 µM; that for `Cc1c(F)cc(C(=O)NC2CC2)cc1-c1ccc(C(=O)NCc2cc(F)c(F)cc2F)cn1` was less than 10 µM. As for `Cc1c(F)cc(C(=O)NC2CC2)cc1-c1ccc(C(=O)NCc2nccs2)cn1`, the figure is less than 10 µM; as for `CCN(C(=O)c1ccc(-c2cc(C(=O)NC3CC3)cc(F)c2C)nc1)C(C)C`, less than 10 µM. `Cc1c(F)cc(C(=O)NC2CC2)cc1-c1ccc(C(=O)NCc2cccc(Cl)c2F)cn1` showed an IC50 of less than 10 µM. As for `Cc1c(F)cc(C(=O)NC2CC2)cc1-c1ccc(C(=O)NCc2ccc(F)c(F)c2F)cn1`, the figure is less than 10 µM. As for `Cc1c(F)cc(C(=O)NC2CC2)cc1-c1ccc(C(=O)N2CCC(C)CC2)cn1`, the figure is less than 10 µM; as for `CCC(C)(C)NC(=O)c1ccc(-c2cc(C(=O)NC3CC3)cc(F)c2C)nc1`, less than 10 µM. As for `COc1ccc(NC(=O)c2ccc(-c3cc(C(=O)NC4CC4)ccc3C)nc2)cc1`, the figure is less than 10 µM; as for `Cc1c(F)cc(C(=O)NC2CC2)cc1-c1ccc(C(=O)NCc2ccccc2F)cn1`, less than 10 µM; as for `Cc1ccc(C(=O)Nc2nccs2)cc1-c1ccc(C(=O)NCC2CC2)cn1`, less than 10 µM. Take `CCC(C)NC(=O)c1ccc(-c2cc(C(=O)NC3CC3)cc(F)c2C)nc1` (stereo not drawn): the IC50 was less than 10 µM. As for `CCCC(C)(C)NC(=O)c1ccc(-c2cc(C(=O)NC3CC3)cc(F)c2C)nc1`, the figure is less than 10 µM; as for `COc1ccc(NC(=O)c2ccc(-c3cc(NC(=O)c4ccoc4)ccc3C)nc2)cc1`, less than 10 µM. As to `CCC1CC1CNC(=O)c1ccc(-c2cc(C(=O)NC3CC3)cc(F)c2C)nc1` (stereo not drawn), the IC50 was less than 10 µM.

The compound `Cc1ccc(CNC(=O)c2ccc(-c3cc(C(=O)NC4CC4)cc(F)c3C)nc2)cc1` had an IC50 of less than 10 µM. Turning to `Cc1c(F)cc(C(=O)NC2CC2)cc1-c1ccc(C(=O)NCCC(F)(F)F)cn1`, the IC50 is less than 10 µM.

The compound `Cc1csc(CCNC(=O)c2ccc(-c3cc(C(=O)NC4CC4)cc(F)c3C)nc2)n1` returned an IC50 of less than 10 µM. As for `Cc1c(F)cc(C(=O)NC2CC2)cc1-c1ccc(C(=O)NCc2cc(F)c(F)c(F)c2)cn1`, the figure is less than 10 µM.

`Cc1c(F)cc(C(=O)NC2CC2)cc1-c1ccc(C(=O)NCC(C)C(F)(F)F)cn1` (stereo not drawn): the IC50 was less than 10 µM. Compound `CC(C)=CCNC(=O)c1ccc(-c2cc(C(=O)NC3CC3)cc(F)c2C)nc1` showed an IC50 of less than 10 µM. The value for `Cc1c(F)cc(C(=O)NC2CC2)cc1-c1ccc(C(=O)NC(C)CC(C)C)cn1` (stereo not drawn) was less than 10 µM; that for `Cc1ccc(NC(=O)c2ccnc(N3CCCC3)c2)cc1-c1ccc(C(=O)NCC2CC2)cn1` was less than 10 µM; that for `Cc1c(F)cc(C(=O)NC2CC2)cc1-c1ccc(C(=O)N2CCCC(C)C2)cn1` (stereo not drawn) was less than 10 µM. The compound `Cc1c(F)cc(C(=O)NC2CC2)cc1-c1ccc(C(=O)N2CCC(C)CC2C)cn1` (stereo not drawn) yielded an IC50 of less than 10 µM. The value for `COC(C)(C)CNC(=O)c1ccc(-c2cc(C(=O)NC3CC3)cc(F)c2C)nc1` was less than 10 µM; that for `Cc1ccc(NC(=O)c2ccc(-c3cc(C(=O)NC4CC4)cc(F)c3C)nc2)cc1` was less than 10 µM.

In the case of `Cc1c(F)cc(C(=O)NC2CC2)cc1-c1ccc(C(=O)NCc2cccc(F)c2)cn1`, the IC50 was less than 10 µM.

As for `Cc1c(F)cc(C(=O)NC2CC2)cc1-c1ccc(C(=O)NC2CCC2)cn1`, the IC50 is less than 10 µM.
